Experimental data: patent publication US11912699B2, “Tau-protein targeting compounds and associated” (Arvinas Operations, Inc., priority 2019, dated 2024)

The molecules below were run against T1, Tau P301L (Homo sapiens, UniProt P10636, P618L) (assay: In vitro tau degradation assay in CHOK1 Tau P301L cells (sarkosyl insoluble tau, WES)). Details: CHO-K1; remaining tau protein in sarkosyl insoluble pellet; CHOK1 Tau P301L cells treated 48 hours with test compound at 1 μM, doxycycline removed for the last 24 hours; relative to DMSO doxycycline control; read-out: Tau Protein Degradation effect at 1 μM.
T1 construct: expressed in transfected cells
Assay type: cell-based
Procedure: Exemplary bifunctional molecules of the present disclosure are represented by the structures in Table 1, which includes associated data. In vitro tau protein degradation data in CHOK1 Tau P301L cells, as described below, is reported based on the remaining tau protein in the sarkosyl insoluble pellet following treatment of cells for 48 hours with test compound at the 1 μM concentration where the last 24 hours doxycycline was removed. The data are represented relative to DMSO doxycycline control: • A ≤50% of tau protein remaining (>50% of tau protein degraded) • B >50% of tau protein remaining ([…] of tau protein degraded)
Data for compounds in Table 1 was generated using in vitro tau Degradation Assay protocol as described in Methods for FIGS. 2A and 2B below.
FIGS. 2A and 2B. (2A) Tau expression was induced by addition (+) of doxycycline (1 μg/ml) to ChoK1-Tau P301L clone D1.
In vitro tau Degradation Assay for FIGS. 2A and 2B. T-Rex CHOK1 cells are maintained in Ham's F-12 Nutrient Mix (ThermoFisher) plus 10% Fetal Bovine Serum Tetracycline Negative (Corning) with 10 ug/mL Blasticidin S HCl (Gibco) and 200 ug/mL Zeocin (100 mg/mL, Invitrogen). A stable clone expressing Tau P301L in the presence of doxycycline (1 μg/ml), clone D1 was selected. Compounds were diluted to indicated concentrations and used to treat cells for the indicated times. Cells were harvested from either 96, 24, 6, or 10 cm dishes coated with Poly-D-Lysine (Corning) in ice cold PBS or Buffer H+HALT Protease and phosphatase inhibitors (Thermofisher). Sarkosyl Insoluble tau was isolated as described in Eckermann et al. and Greenberg and Davies, accordingly. WES™ capillary electrophoresis analysis was performed on the Sarkosyl Insoluble tau fraction using Tau1 antibody (Milipore) unless otherwise indicated, as specified in the manufacturers specification (ProteinSimple).

T1 sequence (P10636 1-441 isoform P10636-8 P301L): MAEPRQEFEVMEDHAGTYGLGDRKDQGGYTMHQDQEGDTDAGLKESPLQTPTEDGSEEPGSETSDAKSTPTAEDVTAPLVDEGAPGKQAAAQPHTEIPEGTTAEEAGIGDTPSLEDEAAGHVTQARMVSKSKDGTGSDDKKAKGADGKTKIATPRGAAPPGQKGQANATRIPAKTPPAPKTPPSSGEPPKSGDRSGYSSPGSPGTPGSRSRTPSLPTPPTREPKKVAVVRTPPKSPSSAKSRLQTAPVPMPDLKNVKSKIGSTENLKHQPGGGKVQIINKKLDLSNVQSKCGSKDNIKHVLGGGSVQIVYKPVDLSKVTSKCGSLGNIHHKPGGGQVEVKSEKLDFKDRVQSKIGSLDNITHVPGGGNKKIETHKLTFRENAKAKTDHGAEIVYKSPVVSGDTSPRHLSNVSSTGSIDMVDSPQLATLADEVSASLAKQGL

SMILES	remaining activity at 1 µM
Cc1ncsc1-c1ccc([C@H](C)NC(=O)[C@@H]2C[C@@H](O)CN2C(=O)[C@@H](c2cc(OCCN3CCC(OC4CN(c5ccc(-c6ccc7c8cnccc8n(C)c7c6)cn5)C4)CC3)no2)C(C)C)cc1 (single isomer, unassigned) [Compound 467]	> 50%
Cc1ncsc1-c1ccc([C@H](C)NC(=O)[C@@H]2C[C@@H](O)CN2C(=O)C(c2cc(OCCOCCOCCOc3ccc(-c4ccc5c(c4)[nH]c4ccncc45)cn3)no2)C(C)C)cc1 (stereo in doubt) [Compound 395, (2S,4R)-1-((S)-2-(3-(2-(2-(2-((5-(5H-pyrido[4,3-b]indol-7-yl)pyridin-2-yl)oxy)ethoxy)ethoxy)ethoxy)isoxazol-5-yl)-3-methylbutanoyl)-4-hydroxy-N-((S)-1-(4-(4-methylthiazol-5-yl)phenyl)ethyl) pyrrolidine-2-carboxamide]	> 50%
Cn1c2ccncc2c2ccc(-c3ccc(O[C@H]4C[C@H](Oc5ccc(C#CCN6CC(Oc7ccc8c(c7)CN(C7CCC(=O)NC7=O)C8=O)C6)nc5)C4)nc3)cc21 (stereo partly shown) [Compound 340, 3-(5-((1-(3-(5-((1r,3r)-3-((5-(5-methyl-5H-pyrido[4,3-b]indol-7-yl)pyridin-2-yl)oxy)cyclobutoxy)pyridin-2-yl)prop-2-yn-1-yl)azetidin-3-yl)oxy)-1-oxoisoindolin-2-yl)piperidine-2,6-dione]	> 50%
Cn1c2ccncc2c2ccc(-c3ccc(O[C@H]4C[C@H](OC5CCN(CCN6CCN(c7ccc8c(c7)C(=O)N(C7CCC(=O)NC7=O)C8=O)CC6)CC5)C4)nc3)cc21 (stereo partly shown) [Compound 341, 2-(2,6-dioxopiperidin-3-yl)-5-(4-(2-(4-((1r,3r)-3-((5-(5-methyl-5H-pyrido[4,3-b]indol-7-yl)pyridin-2-yl)oxy)cyclobutoxy)piperidin-1-yl)ethyl)piperazin-1-yl) isoindoline-1,3-dione]	> 50%
Cn1c2ccncc2c2ccc(-c3ccc(O[C@H]4C[C@H](OCCCN5CCN(c6ccc7c(c6)C(=O)N(C6CCC(=O)NC6=O)C7=O)CC5)C4)nc3)cc21 (stereo partly shown) [Compound 343, 2-(2,6-dioxopiperidin-3-yl)-5-(4-(3-((1r,3r)-3-((5-(5-methyl-5H-pyrido[4,3-b]indol-7-yl)pyridin-2-yl)oxy)cyclobutoxy)propyl)piperazin-1-yl)isoindoline-1,3-dione]	< 50%
Cn1c2ccncc2c2ccc(-c3ccc(O[C@H]4C[C@H](Oc5ccc(C#CCNCCCc6ccc7c(c6)CN(C6CCC(=O)NC6=O)C7=O)nc5)C4)nc3)cc21 (stereo partly shown) [Compound 346, 3-(5-(3-((3-(5-((1r,3r)-3-((5-(5-methyl-5H-pyrido[4,3-b]indol-7-yl)pyridin-2-yl)oxy)cyclobutoxy)pyridin-2-yl)prop-2-yn-1-yl)amino)propyl) 1-oxoisoindolin-2-yl)piperidine-2,6-dione]	> 50%
Cc1ncsc1-c1ccc([C@H](C)NC(=O)[C@@H]2C[C@@H](O)CN2C(=O)[C@@H](NC(=O)COCCOCCOCCOCCOCCOc2cc3ccn(-c4cc5c(N)cccc5cn4)c3cn2)C(C)(C)C)cc1 [Compound 351, (2S,4R)-1-((S)-20-((1-(5-aminoisoquinolin-3-yl)-1H-pyrrolo[2,3-c]pyridin-5-yl)oxy)-2-(tert-butyl)-4-oxo-6,9,12,15,18-pentaoxa-3-azaicosanoyl)-4-hydroxy-N-((S)-1-(4-(4-methylthiazol-5-yl)phenyl)ethyl) pyrrolidine-2-carboxamide]	> 50%
Nc1cccc2cnc(-n3ccc4cc(OCCOCCOCCOCCOCCOc5ccc6c(c5)C(=O)N(C5CCC(=O)NC5=O)C6=O)ncc43)cc12 (stereo not shown) [Compound 352, 5-((14-((1-(5-aminoisoquinolin-3-yl)-1H-pyrrolo[2,3-c]pyridin-5-yl)oxy)-3,6,9, 12-tetraoxatetradecyl)oxy)-2-(2,6-dioxo-piperidin-3-yl) isoindoline-1,3-dione]	< 50%
Nc1cccc2cnc(-n3ccc4cc(OCCOCCOCCOCCOc5ccc6c(c5)C(=O)N(C5CCC(=O)NC5=O)C6=O)ncc43)cc12 (stereo not shown) [Compound 353, 5-(2-(2-(2-(2-((1-(5-aminoisoquinolin-3-yl)-1H-pyrrolo[2,3-c]pyridin-5-yl)oxy)ethoxy)ethoxy)ethoxy)ethoxy)-2-(2,6-dioxopipieridin-3-yl)isoindoline-1,3-dione]	< 50%
Cc1cnc(Nc2ccc3cnccc3c2)cc1OCCOCCOCCOCCOc1ccc2c(c1)C(=O)N(C1CCC(=O)NC1=O)C2=O (stereo not shown) [Compound 369, 2-(2,6-dioxopiperidin-3-yl)-5-(2-(2-(2-(2-((2-(isoquinolin-6-ylamino)-5-methylpyridin-4-yl)oxy)ethoxy)ethoxy)ethoxy)ethoxy) isoindoline-1,3-dione]	< 50%
Cc1ncsc1-c1ccc([C@H](C)NC(=O)[C@@H]2C[C@@H](O)CN2C(=O)[C@@H](c2cc(OCCN3CCN(CCN4CCC(O[C@H]5C[C@H](Oc6ccc(-c7ccc8c9cnccc9n(C)c8c7)cn6)C5)CC4)CC3)no2)C(C)C)cc1 [Compound 372, (2S,4R)-4-hydroxy-1-((R)-3-methyl-2-(3-(2-(4-(2-(4-((1r,3r)-3-((5-(5-methyl-5H-pyrido[4,3-b]indol-7-yl)pyridin-2-yl)oxy)cyclobutoxy)piperidin-1-yl)ethyl)piperazin-1-yl)ethoxy)isoxazol-5-yl)butanoyl)-N-((S)-1-(4-(4-methylthiazol-5-yl)phenyl)ethyl) pyrrolidine-2-carboxamide]	> 50%
Cc1ncsc1-c1ccc([C@H](C)NC(=O)[C@@H]2C[C@@H](O)CN2C(=O)[C@@H](NC(=O)COCCOCCOCCOCCOc2ccc3cc(-n4ccc5ccncc54)ncc3c2)C(C)(C)C)cc1 [Compound 375, (2S,4R)-1-((S)-17-((3-(1H-pyrrolo[2,3-c]pyridin-1-yl)isoquinolin-7-yl)oxy)-2-(tert-butyl)-4-oxo-6,9,12,15-tetraoxa-3-azaheptadecanoyl)-4-hydroxy-N-((S)-1-(4-(4-methylthiazol-5-yl)phenyl)ethyl) pyrrolidine-2-carboxamide]	> 50%
Cc1ncsc1-c1ccc([C@H](C)NC(=O)[C@@H]2C[C@@H](O)CN2C(=O)[C@@H](NC(=O)COCCCCCN2CCC(OC3CC(Oc4ccc(-c5ccc6c7cnccc7n(C)c6c5)cn4)C3)CC2)C(C)(C)C)cc1 (stereo partly drawn) [Compound 377, (2S,4R)-1-((S)-3,3-dimethyl-2-(2-((5-(4-((1r,3r)-3-((5-(5-methyl-5H-pyrido[4,3-b]indol-7-yl)pyridin-2-yl)oxy)cyclobutoxy)piperidin-1-yl)pentyl)oxy)acetamido)butanoyl)-4-hydroxy-N-((S)-1-(4-(4-methythiazol-5-yl)phenyl)ethyl) pyrrolidine-2-carboxamide]	> 50%
Cc1ncsc1-c1ccc([C@H](C)NC(=O)[C@@H]2C[C@@H](O)CN2C(=O)[C@H](c2cc(OCCCCCN3CCC(O[C@H]4C[C@H](Oc5ccc(-c6ccc7c8cnccc8n(C)c7c6)cn5)C4)CC3)no2)C(C)C)cc1 [Compound 378, (2S,4R)-4-hydroxy-1-((S)-3-methyl-2-(3-((5-(4-((1r,3r)-3-((5-(5-methyl-5H-pyrido[4,3-b]indol-7-yl)pyridin-2-yl)oxy)cyclobutoxy)piperidin-1-yl)pentyl)oxy)isoxazol-5-yl)butanoyl)-N-((S)-1-(4-(4-methylthiazol-5-yl)phenyl)ethyl) pyrrolidine-2-carboxamide]	> 50%
Cc1ncsc1-c1ccc([C@H](C)NC(=O)[C@@H]2C[C@@H](O)CN2C(=O)[C@@H](c2cc(OCCCCCN3CCC(O[C@H]4C[C@H](Oc5ccc(-c6ccc7c8cnccc8n(C)c7c6)cn5)C4)CC3)no2)C(C)C)cc1 [Compound 379, (2S,4R)-4-hydroxy-1-((R)-3-methyl-2-(3-((5-(4-((1r,3r)-3-((5-(5-methyl-5H-pyrido[4,3-b]indol-7-yl)pyridin-2-yl)oxy)cyclobutoxy)piperidin-1-yl)pentyl)oxy)isoxazol-5-yl)butanoyl)-N-((S)-1-(4-(4-methylthiazol-5-yl)phenyl)ethyl) pyrrolidine-2-carboxamide]	> 50%

Same assay, conditions: remaining tau protein in sarkosyl insoluble pellet; CHOK1 Tau P301L cells treated 48 hours with test compound at 1 μM, doxycycline removed for the last 24 hours; relative to DMSO doxycycline control

SMILES	Tau Protein Degradation effect at 1 μM
O=C1CCC(N2C(=O)c3ccc(N4CCN(CCCC5CCN(CC6CC(Oc7ccc(-c8ccc9c(c8)[nH]c8ccncc89)cn7)C6)CC5)CC4)cc3C2=O)C(=O)N1 (stereo not shown) [Compound 376, 5-(4-(3-(1-(((1r,3r)-3-((5-(5H-pyrido[4,3-b]indol-7-yl)pyridin-2-yl)oxy)cyclobutyl)methyl)piperidin-4-yl)propyl)piperazin-1-yl)-2-(2,6-dioxopiperidin-3-yl)isoindoline-1,3-dione]	B (>50% of tau protein remaining (≥50% of tau protein degraded))
